Data reported in patent US20160355530A1, “HEPATITIS C INHIBITORS AND USES THEREOF” (AbbVie Inc., priority 2010, published 2016).

Assays:
[1] = target: T1, HCV NS5B polymerase 1a-H77 (Hepatitis C virus genotype 1a, UniProt P27958); experiment: biochemical; design: species or system HCV genotype 1a; conditions: enzyme, strain 1a H77; read-out: HCV Polymerase Strain 1a H77 IC50
T1 construct: six-histidine tag; made in house; host or cells: E. coli
Summary of the method: (§1)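 Incorporation of [3H]UTP (0.284 μM), alongside 20 μM each CTP and ATP, into RNA copied from a 5 nM 2.1 kb genotype 1b negative-strand template was measured after 3 h at 30° C using purified His-tagged NS5B truncated at residue 570. Product was spermine-precipitated, filtered and scintillation-counted; nonlinear regression gave IC50.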

[2] = target: T2, HCV NS5B polymerase 1a-H77-C316Y (Hepatitis C virus genotype 1a, UniProt P27958, C2736Y); experiment: biochemical; design: species or system HCV genotype 1a
T2 construct: six-histidine tag; made in house; host or cells: E. coli
Summary of the method: as §1

[3] = tested on: HCV NS5B polymerase 1a-H77-C316Y; experiment: biochemical; design: species or system HCV genotype 1a; conditions: ratio of enzyme IC50s, 1a H77-C316Y / 1a H77
Summary of the method: as §1

[4] = target: T3, HCV NS5B polymerase 1b BK strain (Hepatitis C virus genotype 1b, UniProt P26663); experiment: HCV NS5B polymerase enzymatic inhibition assay, strain 1b BK; type: biochemical; conditions: enzyme, strain 1b BK; read-out: HCV Polymerase Strain 1b BK IC50
T3 construct: six-histidine tag; made in house; host or cells: E. coli
Summary of the method: as §1

[5] = target: T4, HCV NS5B polymerase 1b Rice (Hepatitis C virus genotype 1b, UniProt Q9WMX2); experiment: HCV NS5B polymerase enzymatic inhibition assay, strain 1b Rice; type: biochemical, HCV genotype 1b; conditions: enzyme
T4 construct: six-histidine tag; made in house; host or cells: E. coli
Protocol: Purified HCV NS5B polymerase enzymes were used for polymerase inhibition assays. All recombinant HCV polymerases contained the first 570 amino acids of the 591 amino acid native protein sequence and a six-histidine tag at the N-terminus or C-terminus to facilitate purification by affinity chromatography. The DNA nucleotide sequence for the HCV polymerase 1b BK strain was codon optimized for expression in E. coli. A synthetic gene was prepared from a series of overlapping oligonucleotides that were filled in using a DNA polymerase and amplified by PCR. The patient isolate HCV polymerases were cloned by RT-PCR methods using HCV RNA extracted from the serum of infected subjects obtained from ProMedDx and BioCollections (genotypes 2a, 2b, 3a, and 4a). Laboratory strains were cloned from plasmid DNA (1a-H77 or 1a-H77-C316Y) or from existing replicon cells (1b Rice). In all cases the amplified DNA was cloned into a protein expression vector (typically a pET vector from Novagen) and then multiple clones were sequenced to identify one whose NS5B sequence agreed with the population sequence. This sequence-confirmed clone was then transfected into E. coli for protein expression and purification. E. coli cultures were grown to a maximum optical density (OD) of 2-3 and then induced with 0.4 mM isopropyl beta-D-thiogalactopyranoside (IPTG) and grown for 20 hours at 20° C.
Proteins were purified using nickel affinity chromatography, and additional column steps were added including, ion exchange, size exclusion, hydrophobic ion, and poly-U affinity chromatography, as needed, depending on the sample being purified. The template RNA used in the polymerase enzymatic assay was a 2.1 kb construct that corresponds to the 3′-end of an HCV genotype 1b negative strand RNA.
The reaction was initiated by the addition of 20 μM CTP, 20 μM ATP, 0.284 μM (0.5 μCi) of 5,6-[^3H] UTP, 5 nM template RNA and 0.1 U/μL RNase inhibitor (RNasin, Promega), and allowed to proceed for three hours at 30° C. The final reaction volume was 50 μL. The reaction was terminated by the addition of 50 uL of 4 mM spermine in 10 mM Tris-HCl, pH 7.5, 1 mM EDTA. The quenched reaction was allowed to incubate for at least 15 minutes at room temperature, and then the precipitated RNA was captured by filtration through a glass fiber filter (GF/B, Millipore) in a 96 well format. The filter plate was washed five times with 200 μL of 2 mM spermine, 10 mM Tris-HCl, pH 8.0, 1 mM EDTA, and two times with ethanol. After drying thoroughly in air, 30 μL of Microscint-20 scintillation cocktail (Perkin Elmer) was added to each well, and the retained cpm were determined by scintillation counting. IC50 values were determined by nonlinear regression.
% Inhibition=100*[[I]/([I]+[IC50])] equation 1
V=kcat[S]/2(Km+[S])*(sqrt((IC50+I−E)̂2+(4*IC50*E))−(IC50+I−E)) equation 2

[6] = tested on: chimeric replicon with 2a-J6CF-derived NS5B; experiment: microbe, parasite or virus in culture; type: cell-based, HCV genotype 2a; conditions: Hepatitis C virus, read-out: 2a chimera 5% FBS EC50
[7] = tested on: chimeric replicon with genotype 2b NS5B; experiment: microbe, parasite or virus in culture; type: cell-based, HCV genotype 2b; conditions: Hepatitis C virus, read-out: 2b chimera 5% FBS EC50
[8] = tested on: chimeric replicon with genotype 3a NS5B; experiment: microbe, parasite or virus in culture; type: cell-based, HCV genotype 3a; conditions: Hepatitis C virus, read-out: 3a chimera 5% FBS EC50
[9] = tested on: chimeric replicon with genotype 4a NS5B; experiment: microbe, parasite or virus in culture; type: cell-based, HCV genotype 4a; conditions: Hepatitis C virus, read-out: 4a chimera 5% FBS EC50
[10] = tested on: HCV 1a-H77 transient subgenomic replicon in Huh-7 derived cell line; experiment: microbe, parasite or virus in culture; type: cell-based, HCV genotype 1a; conditions: Hepatitis C virus, Huh-7; transient replicon, 5% FBS; read-out: Transient Replicon 1a H77 5% FBS EC50
Summary of the method: (§2)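 Subgenomic replicon RNA (no Neo gene) electroporated into Huh-7-derived cells, plated at 5×10^3 cells/well; a 4 h plate gauged transfection efficiency. Cells exposed to 3-fold compound dilutions (0.5% DMSO) for 4 days at 37° C, then lysed for luciferase readout; EC50 calculated.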

[11] = tested on: HCV 1a-H77-C316Y transient subgenomic replicon in Huh-7 derived cell line; experiment: microbe, parasite or virus in culture; type: cell-based, HCV genotype 1a; conditions: for EC50: Hepatitis C virus, Huh-7, read-out: Transient Replicon 1a H77-C316Y 5% FBS EC50; for Transient Replicon Fold Resistance C316Y/1a: ratio of transient replicon EC50s, C316Y / 1a H77
Summary of the method: as §2

T2 sequence (P27958 2421-2990 C2736Y): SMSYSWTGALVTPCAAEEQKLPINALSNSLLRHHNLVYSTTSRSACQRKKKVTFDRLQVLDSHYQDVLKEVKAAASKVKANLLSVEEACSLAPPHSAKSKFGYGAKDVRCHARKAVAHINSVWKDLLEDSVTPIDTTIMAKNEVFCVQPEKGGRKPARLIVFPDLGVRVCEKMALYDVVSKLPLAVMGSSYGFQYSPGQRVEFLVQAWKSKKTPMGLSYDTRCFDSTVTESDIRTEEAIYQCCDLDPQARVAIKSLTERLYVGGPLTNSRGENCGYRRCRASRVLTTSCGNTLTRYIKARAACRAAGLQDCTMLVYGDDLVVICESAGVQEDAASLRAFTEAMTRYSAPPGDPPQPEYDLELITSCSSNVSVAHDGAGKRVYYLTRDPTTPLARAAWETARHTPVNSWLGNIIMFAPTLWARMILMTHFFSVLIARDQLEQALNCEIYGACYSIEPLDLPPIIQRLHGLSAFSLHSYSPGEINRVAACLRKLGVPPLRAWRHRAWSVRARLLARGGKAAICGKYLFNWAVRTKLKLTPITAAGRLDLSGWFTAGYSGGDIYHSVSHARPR
T1 sequence (P27958 2421-2990): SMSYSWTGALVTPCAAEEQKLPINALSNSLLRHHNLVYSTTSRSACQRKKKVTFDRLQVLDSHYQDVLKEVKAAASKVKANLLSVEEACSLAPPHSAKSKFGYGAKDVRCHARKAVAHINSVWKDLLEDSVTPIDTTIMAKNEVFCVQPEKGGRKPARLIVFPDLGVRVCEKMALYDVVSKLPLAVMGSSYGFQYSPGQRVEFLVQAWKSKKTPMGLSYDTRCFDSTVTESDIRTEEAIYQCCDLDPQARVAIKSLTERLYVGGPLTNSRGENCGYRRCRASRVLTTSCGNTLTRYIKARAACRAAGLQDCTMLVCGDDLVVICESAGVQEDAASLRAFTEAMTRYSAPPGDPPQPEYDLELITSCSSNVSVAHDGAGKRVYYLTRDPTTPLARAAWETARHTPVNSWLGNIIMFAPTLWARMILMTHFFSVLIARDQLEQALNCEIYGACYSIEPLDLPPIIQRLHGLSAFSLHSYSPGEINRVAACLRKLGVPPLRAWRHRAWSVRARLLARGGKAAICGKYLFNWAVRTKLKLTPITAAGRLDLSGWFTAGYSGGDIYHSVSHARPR
T3 sequence (P26663 2420-2989): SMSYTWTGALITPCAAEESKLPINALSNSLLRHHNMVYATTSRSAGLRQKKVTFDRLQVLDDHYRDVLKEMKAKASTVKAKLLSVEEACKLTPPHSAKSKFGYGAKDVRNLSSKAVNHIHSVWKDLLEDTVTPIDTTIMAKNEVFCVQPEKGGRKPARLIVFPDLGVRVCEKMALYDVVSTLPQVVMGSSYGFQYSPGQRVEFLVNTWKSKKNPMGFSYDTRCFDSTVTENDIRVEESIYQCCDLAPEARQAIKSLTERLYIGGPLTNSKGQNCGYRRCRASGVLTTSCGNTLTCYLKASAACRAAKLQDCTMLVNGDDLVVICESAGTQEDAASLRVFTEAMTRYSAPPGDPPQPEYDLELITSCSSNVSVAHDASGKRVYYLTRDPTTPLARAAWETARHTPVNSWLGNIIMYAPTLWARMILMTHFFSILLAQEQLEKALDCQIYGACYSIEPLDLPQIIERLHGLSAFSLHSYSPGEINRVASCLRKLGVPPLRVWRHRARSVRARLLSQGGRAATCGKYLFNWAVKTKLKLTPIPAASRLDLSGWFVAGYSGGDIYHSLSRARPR

**Q.** How did the IC50 [1] turn out when `CS(=O)(=O)N(CCO)c1cc2oc(-c3ccc(F)cc3)c(-c3ncc[nH]3)c2cc1C1CC1` [Example 109, N-[5-cyclopropyl-2-(4-fluorophenyl)-3-(1H-imidazol-2-yl)-1-benzofuran-6-yl]-N-(2-hydroxyethyl)methanesulfonamide] was run?
**A.** 5.9 nM

**Q.** And the IC50 [2]?
**A.** 536 nM

**Q.** And the “C316Y/1a Fold Resistance” value [3]?
**A.** 90 fold

**Q.** And the IC50 [4]?
**A.** 61.7 nM

**Q.** What about the IC50 [5] of the same compound?
**A.** 16.9 nM

**Q.** What about the EC50 [6] of the same compound?
**A.** 115 nM

**Q.** And the EC50 [7]?
**A.** 120 nM

**Q.** What about the EC50 [8] of the same compound?
**A.** 6.8 nM

**Q.** And the EC50 [9]?
**A.** 166 nM

**Q.** What about the EC50 [10] of the same compound?
**A.** 38 nM

**Q.** And the EC50 [11]?
**A.** 1300 nM

**Q.** And the “Transient Replicon Fold Resistance C316Y/1a” value [11]?
**A.** 34 fold

**Q.** For `CS(=O)(=O)N(CCO)c1cc2oc(-c3ccc(F)cc3)c(C3=NOCCN3)c2cc1C1CC1` [Example 136, N-[5-cyclopropyl-3-(5,6-dihydro-4H-1,2,4-oxadiazin-3-yl)-2-(4-fluorophenyl)-1-benzofuran-6-yl]-N-(2-hydroxyethyl)methanesulfonamide], which IC50 [1] is on record?
**A.** 6.4 nM

**Q.** And the IC50 [2]?
**A.** 256 nM

**Q.** And the “C316Y/1a Fold Resistance” value [3]?
**A.** 40 fold

**Q.** What about the IC50 [4] of the same compound?
**A.** 200 nM

**Q.** And the IC50 [5]?
**A.** 57 nM

**Q.** And the EC50 [6]?
**A.** 204 nM

**Q.** What about the EC50 [7] of the same compound?
**A.** 426 nM

**Q.** What about the EC50 [8] of the same compound?
**A.** 42 nM

**Q.** And the EC50 [9]?
**A.** 291 nM

**Q.** And the EC50 [10]?
**A.** 32.4 nM

**Q.** What about the EC50 [11] of the same compound?
**A.** 679 nM

**Q.** And the “Transient Replicon Fold Resistance C316Y/1a” value [11]?
**A.** 21 fold

**Q.** Which results are given for `CCCC/C=C/c1ccc(-c2oc3cc(N(CCCCS(C)(=O)=O)S(C)(=O)=O)c(C4CC4)cc3c2-c2ncc[nH]2)cc1` [Example 168, N-[5-cyclopropyl-2-{4-[(1E)-hex-1-en-1-yl]phenyl}-3-(1H-imidazol-2-yl)-1-benzofuran-6-yl]-N-[4-(methylsulfonyl)butyl]methanesulfonamide]?
**A.** IC50 [1]: 4.9 nM; IC50 [2]: 8.5 nM; C316Y/1a Fold Resistance [3]: 2 fold; IC50 [4]: 39.2 nM; IC50 [5]: 4.9 nM; EC50 [6]: 6 nM; EC50 [7]: 13.3 nM; EC50 [8]: 12.7 nM; EC50 [9]: 14.4 nM; EC50 [10]: 0.6 nM; EC50 [11]: 14.4 nM; Transient Replicon Fold Resistance C316Y/1a [11]: 24 fold

**Q.** Which results are given for `CS(=O)(=O)CCCCN(c1cc2oc(-c3ccc(Nc4ccccc4)cc3)c(-c3ncc[nH]3)c2cc1C1CC1)S(C)(=O)=O` [Example 169, N-[2-(4-anilinophenyl)-5-cyclopropyl-3-(1H-imidazol-2-yl)-1-benzofuran-6-yl]-N-[4-(methylsulfonyl)butyl]methanesulfonamide]?
**A.** IC50 [1]: 6 nM; IC50 [2]: 19.8 nM; C316Y/1a Fold Resistance [3]: 3 fold; IC50 [4]: 39.1 nM; IC50 [5]: 9.4 nM; EC50 [6]: 16.9 nM; EC50 [7]: 12.3 nM; EC50 [8]: 15 nM; EC50 [9]: 4.3 nM; EC50 [10]: 0.6 nM; EC50 [11]: 4.1 nM; Transient Replicon Fold Resistance C316Y/1a [11]: 6 fold
